Test results taken from US11161854B2, “Indazolyl-spiro[2.2]pentane-carbonitrile derivatives as LRRK2 inhibitors, pharmaceutical compositions, and uses thereof” (Merck Sharp & Dohme Corp., priority 2017, dated 2021).

Biological target: GST-tagged truncated human mutant G2019S LRRK2 (Homo sapiens (Human), UniProt Q5S007, G2019S)
Test: LRRK2 G2019S Km ATP LanthaScreen Assay
Assay type: biochemical
Settings: 134 μM ATP (Km ATP); fluorescein-labeled LRRKtide substrate; mean IC50 values
Procedure: The IC50 values reported herein were measured as follows.
Biological Assay: LRRK2 Km ATP LanthaScreen™ Assay
The data presented for the Km ATP LanthaScreen™ Assay represents mean IC50 values based on several test results and may have reasonable deviations depending on the specific conditions and reagents used. Assays were performed in the presence of 134 μM ATP (Km ATP). Upon completion, the assay was stopped and phosphorylated substrate detected with a terbium (Tb)-labeled anti-pERM antibody (cat. no. PV4898). The compound dose response was prepared by diluting a 10 mM stock of compound to a maximum concentration of […] in 100% dimethylsulfoxide followed by custom fold serial dilution in dimethylsulfoxide nine times. Twenty nanoliters of each dilution was spotted via a Labcyte Echo onto a 384-well black-sided plate (Corning 3575) followed by 15 μl of a 1.25 nM enzyme solution in 1× assay buffer (50 mM Tris pH 8.5, 10 mM MgCl2, 0.01% Brij-35, 1 mM EGTA, 2 mM dithiothreitol, 0.05 mM sodium orthovanadate). Following a 15-minute incubation at room temperature, the kinase reaction was started with the addition of 5 μl of 400 nM fluorescein-labeled LRRKtide peptide substrate and 134 μM ATP solution in 1× assay buffer. The reaction was allowed to progress at ambient temperature for 90 minutes. The reaction was then stopped by the addition of 20 μl of TR-FRET Dilution Buffer (Life Technologies, Carlsbad, Calif.) containing 2 nM Tb-labeled anti-phospho LRRKtide antibody and 10 mM EDTA (Life Technologies, Carlsbad, Calif.). After an incubation of 1 hour at room temperature, the plate was read on an EnVision multimode plate reader (Perkin Elmer, Waltham, Mass.) with an excitation wavelength of 337 nm (Laser) and a reading emission at both 520 and 495 nm. […] Abase uses a 4 parameter (4P) logistic fit based on the Levenberg-Marquardt algorithm.

GST-tagged truncated human mutant G2019S LRRK2, sequence (Q5S007 970-2527 G2019S): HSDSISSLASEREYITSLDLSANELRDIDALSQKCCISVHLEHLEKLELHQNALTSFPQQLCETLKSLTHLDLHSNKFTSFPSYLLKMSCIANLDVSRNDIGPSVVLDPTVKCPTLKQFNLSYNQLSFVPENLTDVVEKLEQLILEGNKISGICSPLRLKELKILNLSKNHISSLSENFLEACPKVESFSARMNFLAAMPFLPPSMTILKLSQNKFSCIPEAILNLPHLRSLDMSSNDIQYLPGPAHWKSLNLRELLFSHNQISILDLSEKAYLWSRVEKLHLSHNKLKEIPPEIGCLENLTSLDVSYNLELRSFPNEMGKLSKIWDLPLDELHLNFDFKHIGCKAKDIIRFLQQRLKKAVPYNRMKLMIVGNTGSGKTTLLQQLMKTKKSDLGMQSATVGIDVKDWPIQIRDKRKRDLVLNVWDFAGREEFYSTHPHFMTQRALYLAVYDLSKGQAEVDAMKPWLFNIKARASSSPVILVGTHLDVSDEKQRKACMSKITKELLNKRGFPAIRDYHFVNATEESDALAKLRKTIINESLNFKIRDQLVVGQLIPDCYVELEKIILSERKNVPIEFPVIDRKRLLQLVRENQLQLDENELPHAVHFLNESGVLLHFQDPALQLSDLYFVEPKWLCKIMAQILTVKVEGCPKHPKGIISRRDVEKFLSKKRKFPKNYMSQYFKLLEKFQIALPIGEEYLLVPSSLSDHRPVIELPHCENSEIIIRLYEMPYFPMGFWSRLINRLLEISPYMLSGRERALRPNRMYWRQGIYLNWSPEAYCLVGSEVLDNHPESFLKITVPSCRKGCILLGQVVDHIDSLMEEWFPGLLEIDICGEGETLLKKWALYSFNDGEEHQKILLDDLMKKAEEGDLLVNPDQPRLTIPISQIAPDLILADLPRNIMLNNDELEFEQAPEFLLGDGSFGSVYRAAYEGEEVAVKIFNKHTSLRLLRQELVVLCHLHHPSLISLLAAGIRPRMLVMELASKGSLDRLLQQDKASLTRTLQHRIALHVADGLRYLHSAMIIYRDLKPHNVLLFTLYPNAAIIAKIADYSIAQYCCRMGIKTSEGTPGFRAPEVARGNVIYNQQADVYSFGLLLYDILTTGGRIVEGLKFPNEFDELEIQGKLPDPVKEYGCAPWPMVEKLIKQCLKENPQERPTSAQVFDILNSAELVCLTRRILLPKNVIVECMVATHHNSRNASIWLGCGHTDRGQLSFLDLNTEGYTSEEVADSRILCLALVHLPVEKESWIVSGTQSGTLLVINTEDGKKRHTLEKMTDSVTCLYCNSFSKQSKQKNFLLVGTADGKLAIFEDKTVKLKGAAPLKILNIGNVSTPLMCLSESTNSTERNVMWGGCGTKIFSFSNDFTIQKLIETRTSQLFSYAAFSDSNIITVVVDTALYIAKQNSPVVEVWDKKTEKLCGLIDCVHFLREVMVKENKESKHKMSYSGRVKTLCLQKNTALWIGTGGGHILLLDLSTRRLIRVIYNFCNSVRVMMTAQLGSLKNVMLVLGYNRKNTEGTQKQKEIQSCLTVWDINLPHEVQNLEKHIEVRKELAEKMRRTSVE

Structure (SMILES) | IC50 [nM]
N#C[C@@]1(c2ccc3cnn(-c4cc(N5CC(O)C6(CC6)C5)ncn4)c3c2)CC12CC2 (single isomer, unassigned) [Example 3.11-2] | 1.4
N#C[C@]1(c2ccc3cnn(-c4cc(N5CC(O)C6(CC6)C5)ncn4)c3c2)CC12CC2 (single isomer, unassigned) [Example 3.11-3] | 6.3
N#C[C@@]1(c2ccc3cnn(-c4cc(N5CC(O)C6(CC6)C5)ncn4)c3c2)CC12CC2 (single isomer, unassigned) [Example 3.11-4] | 0.6
CC(C)(O)C1CN(c2cc(-n3ncc4ccc([C@]5(C#N)CC56CC6)cc43)ncn2)CCO1 (single isomer, unassigned) [Example 4.3-1, 1-(1-(6-(2-(2-hydroxypropan-2-yl)morpholino)pyrimidin-4-yl)-1H-indazol-6-yl)spiro[2.2]pentane-1-carbonitrile] | 1.8
CC(C)(O)C1CN(c2cc(-n3ncc4ccc([C@]5(C#N)CC56CC6)cc43)ncn2)CCO1 (single isomer, unassigned) [Example 4.3-2, 1-(1-(6-(2-(2-hydroxypropan-2-yl)morpholino)pyrimidin-4-yl)-1H-indazol-6-yl)spiro[2.2]pentane-1-carbonitrile] | 0.6
CC(C)(O)C12CC(C1)N(c1cc(-n3ncc4c(F)cc(C5(C#N)CC56CC6)cc43)ncn1)C2 (single isomer, unassigned) [Example 4.15-1] | 18.4
CC(C)(O)C12CC(C1)N(c1cc(-n3ncc4c(F)cc(C5(C#N)CC56CC6)cc43)ncn1)C2 (single isomer, unassigned) [Example 4.15-2] | 2.3
CC(C)(O)C12CC(C1)N(c1cc(-n3ncc4cnc(C5(C#N)CC56CC6)cc43)ncn1)C2 (single isomer, unassigned) [Example 5.2-1, 1-(1-(6-(4-(2-hydroxypropan-2-yl)-2-azabicyclo[2.1.1]hexan-2-yl)pyrimidin-4-yl)-1H-pyrazolo[4,3-c]pyridin-6-yl)spiro[2.2]pentane-1-carbonitrile] | 9.2
CC(C)(O)C12CC(C1)N(c1cc(-n3ncc4cnc(C5(C#N)CC56CC6)cc43)ncn1)C2 (single isomer, unassigned) [Example 5.2-2, 1-(1-(6-(4-(2-hydroxypropan-2-yl)-2-azabicyclo[2.1.1]hexan-2-yl)pyrimidin-4-yl)-1H-pyrazolo[4,3-c]pyridin-6-yl)spiro[2.2]pentane-1-carbonitrile] | 1.7
CC(C)(O)[C@@H]1CCN(c2cc(-n3ncc4cnc(C5(C#N)CC56CC6)cc43)ncn2)C1 (single isomer, unassigned) [Example 5.3-1] | 7.5
CC(C)(O)[C@@H]1CCN(c2cc(-n3ncc4cnc(C5(C#N)CC56CC6)cc43)ncn2)C1 (single isomer, unassigned) [Example 5.3-2] | 0.7
C[C@@H]1CN(c2cc(-n3ncc4cnc(C5(C#N)CC56CC6)cc43)ncn2)C[C@H](C)[C@]1(C)O (single isomer, unassigned) [Example 5.4-1] | 15
C[C@@H]1CN(c2cc(-n3ncc4cnc(C5(C#N)CC56CC6)cc43)ncn2)C[C@H](C)[C@]1(C)O (single isomer, unassigned) [Example 5.4-2] | 2.6
CC(C)(O)C12CC(C1)N(c1cc(-n3ncc4cc(F)c(C5(C#N)CC56CC6)cc43)ncn1)C2 (single isomer, unassigned) [Example 5.5-1, 1-(5-fluoro-1-(6-(4-(2-hydroxypropan-2-yl)-2-azabicyclo[2.1.1]hexan-2-yl)pyrimidin-4-yl)-1H-indazol-6-yl)spiro[2.2]pentane-1-carbonitrile] | 3.9
CC(C)(O)C12CC(C1)N(c1cc(-n3ncc4cc(F)c(C5(C#N)CC56CC6)cc43)ncn1)C2 (single isomer, unassigned) [Example 5.5-2, 1-(5-fluoro-1-(6-(4-(2-hydroxypropan-2-yl)-2-azabicyclo[2.1.1]hexan-2-yl)pyrimidin-4-yl)-1H-indazol-6-yl)spiro[2.2]pentane-1-carbonitrile] | 31.6
Cc1nc(N2CC3(C(C)(C)O)CC2C3)cc(-n2ncc3cc(F)c(C4(C#N)CC45CC5)cc32)n1 (single isomer, unassigned) [Example 5.6-1, 1-(5-fluoro-1-(6-(4-(2-hydroxypropan-2-yl)-2-azabicyclo[2.1.1]hexan-2-yl)-2-methylpyrimidin-4-yl)-1H-indazol-6-yl)spiro[2.2]pentane-1-carbonitrile] | 20.9
Cc1nc(N2CC3(C(C)(C)O)CC2C3)cc(-n2ncc3cc(F)c(C4(C#N)CC45CC5)cc32)n1 (single isomer, unassigned) [Example 5.6-2, 1-(5-fluoro-1-(6-(4-(2-hydroxypropan-2-yl)-2-azabicyclo[2.1.1]hexan-2-yl)-2-methylpyrimidin-4-yl)-1H-indazol-6-yl)spiro[2.2]pentane-1-carbonitrile] | 1.3
CC(C)(O)[C@@H]1CCN(c2cc(-n3ncc4cc(F)c(C5(C#N)CC56CC6)cc43)ncn2)C1 (single isomer, unassigned) [Example 5.7-1] | 21.7
CC(C)(O)[C@@H]1CCN(c2cc(-n3ncc4cc(F)c(C5(C#N)CC56CC6)cc43)ncn2)C1 (single isomer, unassigned) [Example 5.7-2] | 2.6
CC(C)(O)C12CC(C1)N(c1cc(-n3ncc4ccc(C5(C#N)CC56CC6)cc43)ccn1)C2 (single isomer, unassigned) [Example 6.1, (R or S)-1-(1-(2-(4-(2-hydroxypropan-2-yl)-2-azabicyclo[2.1.1]hexan-2-yl)pyridin-4-yl)-1H-indazol-6-yl)spiro[2.2]pentane-1-carbonitrile] | 1.2
CC(C)(O)[C@@H]1CCN(c2cc(-n3ncc4cnc(C5(C#N)CC56CC6)cc43)ccn2)C1 (single isomer, unassigned) [Example 6.6-1] | 28.5
CC(C)(O)[C@@H]1CCN(c2cc(-n3ncc4cnc(C5(C#N)CC56CC6)cc43)ccn2)C1 (single isomer, unassigned) [Example 6.6-2] | 3.4
CC(C)(O)C12CC(C1)N(c1cc(-n3ncc4cnc(C5(C#N)CC56CC6)cc43)ccn1)C2 (single isomer, unassigned) [Example 6.7-1, 1-(1-(2-(4-(2-hydroxypropan-2-yl)-2-azabicyclo[2.1.1]hexan-2-yl)pyridin-4-yl)-1H-pyrazolo[4,3-c]pyridin-6-yl)spiro[2.2]pentane-1-carbonitrile] | 59
CC(C)(O)C12CC(C1)N(c1cc(-n3ncc4cnc(C5(C#N)CC56CC6)cc43)ccn1)C2 (single isomer, unassigned) [Example 6.7-2, 1-(1-(2-(4-(2-hydroxypropan-2-yl)-2-azabicyclo[2.1.1]hexan-2-yl)pyridin-4-yl)-1H-pyrazolo[4,3-c]pyridin-6-yl)spiro[2.2]pentane-1-carbonitrile] | 7.8
Cc1cc(-n2ncc3ccc(C4(C#N)CC45CC5)cc32)cc(N2CC3(C(C)(C)O)CC2C3)n1 (single isomer, unassigned) [Example 7.3-1, (R or S)-1-(1-(2-(4-(2-hydroxypropan-2-yl)-2-azabicyclo[2.1.1]hexan-2-yl)-6-methylpyridin-4-yl)-1H-indazol-6-yl)spiro[2.2]pentane-1-carbonitrile] | 54.2
Cc1cc(-n2ncc3ccc(C4(C#N)CC45CC5)cc32)cc(N2CC3(C(C)(C)O)CC2C3)n1 (single isomer, unassigned) [Example 7.3-2, (R or S)-1-(1-(2-(4-(2-hydroxypropan-2-yl)-2-azabicyclo[2.1.1]hexan-2-yl)-6-methylpyridin-4-yl)-1H-indazol-6-yl)spiro[2.2]pentane-1-carbonitrile] | 4.6
CC(C)(O)C12CC(C1)N(c1cc(-n3ncc4ccc(C5(C#N)CC56CC6)cc43)cnn1)C2 (single isomer, unassigned) [Example 10.3-1, (R or S)-1-(1-(6-(4-(2-hydroxypropan-2-yl)-2-azabicyclo[2.1.1]hexan-2-yl)pyridazin-4-yl)-1H-indazol-6-yl)spiro[2.2]pentane-1-carbonitrile] | 35.2
CC(C)(O)C12CC(C1)N(c1cc(-n3ncc4ccc(C5(C#N)CC56CC6)cc43)cnn1)C2 (single isomer, unassigned) [Example 10.3-2, (R or S)-1-(1-(6-(4-(2-hydroxypropan-2-yl)-2-azabicyclo[2.1.1]hexan-2-yl)pyridazin-4-yl)-1H-indazol-6-yl)spiro[2.2]pentane-1-carbonitrile] | 15.4
CC(C)(O)[C@@H]1CCN(c2cc(-n3ncc4ccc(C5(C#N)CC56CC6)cc43)cnn2)C1 (single isomer, unassigned) [Example 10.4-1] | 18.7
CC(C)(O)[C@@H]1CCN(c2cc(-n3ncc4ccc(C5(C#N)CC56CC6)cc43)cnn2)C1 (single isomer, unassigned) [Example 10.4-2] | 2.7
